# Measurements reported in a melting point compilation (Tetko et al.; mined from patent text by program, amines drawn as free bases though some values may be those of a salt).
row,Structure (SMILES),melting point
1,Cc1nc(-c2ccc(C#N)cc2)sc1C(=O)N[C@H](C)[C@](O)(Cn1cncn1)c1ccc(F)cc1F,109 to 111 °C
2,C/C(=C\c1ccc(OCc2nc(-c3ccc(C(F)(F)F)cc3)oc2C)cc1)Cn1oc(=O)[nH]c1=O,90 to 91 °C
3,CCOCc1nc2c(N)nc3ccccc3c2n1CCOCCNS(C)(=O)=O,152 to 155 °C
4,C[C@@H]1CN(C(=O)OC(C)(C)C)C[C@H]2Cc3cc(F)cnc3N21,56.6 to 58.4 °C
5,CN1CCN(c2ccc(Nc3ncc4ccc(Nc5ccccc5)n4n3)cc2)CC1,152 to 157 °C
6,CC(C)c1c(C=O)c(-c2ccc(F)cc2)n2c1CCCC2,100 to 101 °C
7,CCCc1c(OCCCCCOc2ccc(Cl)cc2CCC(=O)O)ccc2c1OCCC2=O,101 to 103 °C
8,COCCn1nc(C(=O)NCc2ccc(OC(C)(C)C(=O)O)c(C)c2)cc1-c1ccc(C(C)(C)C)cc1,65 °C
9,COC(=O)c1cn(C2CC2)c2nc(C)ccc2c1=O,204 to 205 °C
10,CCCCCc1c(-c2ccc(OC(F)F)c(OC3CC3)c2)[nH]c2cn[nH]c(=O)c12,191 to 193 °C
11,O=C(NC12CC3CC(CC(C3)C1)C2)c1ncn(-c2ccccc2)c1Br,229 to 232 °C
12,COc1ccc(-c2nc(C3=CCN(C)CC3)sc2-c2ccc(OC)cc2)cc1,131 to 132 °C
13,Cc1ccccc1C1CC(=O)c2c(C(F)(F)F)coc2C1 (stereo not drawn),105 to 107 °C
14,N#Cc1c(-c2ccc(Cl)cc2)[nH]c(C(F)(F)F)c1C(F)(F)F,208 °C
15,Cc1cccc(-c2n[nH]cc2-c2ccc(F)c(-c3ncc(C(C)(C)O)cn3)c2)n1,162 °C
16,CCOC(=O)CN(C(=O)CN1C(=O)c2ccccc2C1=O)c1ccc(Cl)c(COc2cccc3ccc(C)nc23)c1Cl,211 to 213 °C
17,CC(Cn1ncnn1)n1nnc2cc3c(=O)n(CC(C)(C)O)nnc3cc2c1=O (stereo not drawn),128 to 130 °C
18,O=C(CCl)NOC(c1ccccc1)c1ccccc1,115 to 117 °C
19,CN1C(=O)[C@H](NC(=O)c2ccccc2)N=C(c2ccccc2)c2ccccc21,224 to 225 °C
20,ClC1=Nc2cc(Cl)ccc2Cn2cccc21,129 to 135 °C
21,CC(=O)c1cccc(NC(=O)c2nnnn2Cc2ccccc2)c1O,155 to 157 °C
22,COc1ccccc1N1CCN(C[C@@H](O)CN)CC1,76 to 80 °C
23,CCc1ccc2[nH]c3c(=O)n(CCN(C)C)c4ccccc4c3c2c1,266 to 268 °C
24,O=C(Nc1cccc2c1ncc1ccc(O)cc12)c1c(Cl)cccc1Cl,> 250 °C
25,O=CCOc1ccc(CCC(=O)O)cc1,95 to 100 °C

row,Structure (SMILES),melting point
1,CCc1ccc2c(c1)C=Cc1cc(C)ccc1C2c1cn(-c2ccc(SCC(=O)O)nn2)c(=O)[nH]c1=O (stereo not drawn),225 to 230 °C
2,O=C1NC(=O)C(c2sccc2Br)O1 (stereo not drawn),138 to 139 °C
3,Cc1ccc(S(=O)(=O)OCC2COc3ccccc3C2)cc1 (stereo not drawn),83 to 84 °C
4,CN(C)OC(=O)c1c(O)cccc1Cl,104 to 106 °C
5,CC(C)N=c1[nH]c2ccc(Cl)cc2c2nc(-c3ccco3)nn12,140 to 141 °C
6,CCOC(=O)c1ccc2c(c1)CCC(COS(=O)(=O)c1ccc(C)cc1)C2 (stereo not drawn),76 to 78 °C
7,Cc1cccc(C=CC(=O)c2ccc([N+](=O)[O-])cc2)c1,130 to 132 °C
8,CN(C)c1ccc([N+](=O)[O-])cc1C#N,109 to 110 °C
9,CC1(C)CC(C(O)CNc2nc(NCC(O)C3CC(C)(C)NC(C)(C)C3)nc(NCC(O)C3CC(C)(C)NC(C)(C)C3)n2)CC(C)(C)N1 (stereo not drawn),176 to 178 °C
10,CCOC(=O)CN1C(=O)c2ccc3ccccc3c2S1(=O)=O,149 to 150 °C
11,CCOC(=O)c1cc(=O)c2ccc(NCc3ccccc3)c([N+](=O)[O-])c2o1,168 °C
12,COc1ccc(N2CCOCC2)c2sc(-c3nc4c([nH]3)CCN(C(C)=O)C4)nc12,155 to 157 °C
13,CN(C)C(=O)C1Cc2c([nH]c3ccccc23)C(c2ccc3c(c2)OCO3)N1C(=O)C=Cc1ccccc1 (stereo not drawn),175 to 178 °C
14,COC(=O)/C(=C/C=C/c1ccc2ccccc2n1)OC,88 °C
15,CC(C)(N)c1ccc(-c2nc(Nc3cccc(C(F)(F)F)c3)ncc2C#N)cc1,192 °C
16,CCN(CC)C(C)COc1ccc(NC(=O)C#Cc2ccc(Cl)cc2Cl)cc1 (stereo not drawn),70 to 72 °C
17,COC(=O)[C@H](O)Cc1ccccc1,46 to 47 °C
18,CCC#CC(C)(C)NC(=O)C(CC)Oc1cncc(Br)c1 (stereo not drawn),90 to 92 °C
19,COc1ccc(CCN)cc1OCCC(c1ccccc1)(c1ccccc1)c1ccccc1,111 to 112 °C
20,FC(F)(F)c1ccc(Cl)cc1CN1CCNc2ncc(I)cc21,189 to 191 °C
21,COC(=O)[C@@H](N=[N+]=[N-])[C@@H](O)c1ccccc1,40 to 41 °C
22,CN=C1SCC(O)(c2ccc(Cl)c(S(=O)(=O)NCc3cccnc3)c2)N1C (stereo not drawn),152 to 153 °C
23,CC(=O)Oc1c(C(C)C)cc(NC(=O)Nc2cnc3c(C)cc(C)cc3c2-c2ccccc2Cl)cc1C(C)C,248 to 249 °C
24,COc1ccccc1N1CCN(Cc2ccc(O)cc2)CC1,172 °C
25,O=S(=O)(NCC(O)(Cn1cncn1)c1ccc(F)cc1F)c1ccc(F)cc1 (stereo not drawn),140 to 146 °C

row,Structure (SMILES),melting point
1,CN(C)c1ccc([N+](=O)[O-])cn1,146 to 149 °C
2,C#Cc1ccc2c(C(=O)c3ccc(OCCN4CCCCC4)cc3)c(-c3ccc(O)cc3)sc2c1,97 to 100 °C
3,Nc1ccc(C(CC2CCCC2)C(=O)Nc2nccs2)cc1 (stereo not drawn),102 to 107 °C
4,N#Cc1cccn(-c2ccc(S(=O)(=O)N(CCO)CCO)cc2)c1=O,226 to 228 °C
5,Cn1c(CC#N)ccc1C(=O)c1ccc(F)cc1,134 to 136 °C
6,CC(C)[C@H]1C(C(F)(F)F)OC(=O)N1Cc1ccccc1 (stereo partly drawn),92 to 93 °C
7,O=c1c2cccnc2n(-c2cccc([N+](=O)[O-])c2)c(=O)n1Cc1ccncc1,207 to 209 °C
8,CC(C)(C)COC(=O)Oc1cc(Cl)nnc1-c1ccc(Br)cc1,114 to 116 °C
9,Cc1cc(C(=O)CC(O)(c2cc(Cl)cc(Cl)c2)C(F)(F)F)ccc1Br (stereo not drawn),141 to 142 °C
10,CC=CC(=O)CS(=O)(=O)C(c1ccc(Cl)cc1)c1ccc(Cl)cc1,114 to 116 °C
11,Cc1[nH]c(=S)n(Nc2cccc(F)c2)c1-c1ccccc1,226 °C
12,CC(C)Oc1ccc(-c2nn(C(C)c3oc4cccc(N5CCOCC5)c4c(=O)c3-c3cccc(F)c3)c3ncnc(N)c23)cc1F (stereo not drawn),227 to 229 °C
13,CCCN1C(=O)CN(C)C1S(=O)(=O)N=NC(=O)Nc1nc(OC)cc(OC)n1 (stereo not drawn),96 to 98 °C
14,CC1Cc2cc3c(cc2C(c2ccc([N+](=O)[O-])cc2)=NN1C(=O)Cc1ccccc1)OCO3 (stereo not drawn),193 to 195 °C
15,O=C(O)CCCCCCCCN1C(=O)C(c2ccccc2)N(c2ccccc2)C1=O (stereo not drawn),112 °C
16,CCC(O)(Cn1cncn1)C(C)(C)Cc1ccc(Cl)cc1 (stereo not drawn),124 to 125 °C
17,C#CCN1CCC[C@H](NCc2ccccc2OC)[C@@H]1c1ccccc1 (relative stereo),147 to 149 °C
18,"CN1C(=O)CCC2(C)c3ccc(Sc4ccccn4)cc3CCC12 (single isomer, unassigned; (+))",174 to 176 °C
19,c1csc(CNc2nc(-n3ccnc3)nc3ccccc23)c1,234 to 235 °C
20,CC(=O)NCCNC(=O)c1ccc(Br)s1,244 to 245 °C
21,CCOC(=O)c1nc(-c2ccc(Cl)c(OC)c2F)cc(N)c1Cl,74 to 75 °C
22,CC(C)(C(=O)NC(Nc1c(Nc2cccnc2)c(=O)c1=O)C(C)(C)C)c1ccccc1 (stereo not drawn),247 to 248 °C
23,O=C1Nc2ccccc2Sc2cc(C(F)(F)F)ccc21,216 to 217 °C
24,O=C(c1ccc(OCC2CC2)c2oc3ccccc3c12)[NH+]([O-])c1cccnc1 (stereo not drawn),272 to 275 °C
25,CC1(C)[C@@H](C(=O)O)[C@@H]1C(=O)O (relative stereo),217 °C

row,Structure (SMILES),melting point
1,NC(=O)c1ccc2ccn(C3CCN(CCc4ccc(F)cc4)CC3)c2c1,238 to 240 °C
2,CC1(C)CC(=C(c2ccc(O)cc2)c2ccc(OCC(=O)O)cc2)CC(C)(C)C1,163 to 164 °C
3,CC(C)(C)OC(=O)N1CCN(c2ccc3c(c2)-n2c(nc4ccccc4c2=O)C3=O)CC1,226 to 228 °C
4,NC(=O)c1nnn(Cc2ccc(Cl)c(Cl)c2)c1N,221 to 222 °C
5,COC1=C(Cl)C(=O)C(OC)=C(CCCCCC2=C(OC)C(=O)C(Cl)=C(OC)C2=O)C1=O,79.8 to 80 °C
6,CCOC(=O)C(C)=CC=CC(C)=CC=CC=C(C)C=O,120 to 121 °C
7,CCOC(=O)c1ccc(NC(=O)C=C(c2ccccc2)c2ccc(Cl)cc2)cc1,173 to 175 °C
8,Nc1nc(NCCc2ccccc2)nc(-c2cc(Cl)ccc2Cl)n1,217 to 218 °C
9,Cc1ccc(-c2nc(=S)n(Cc3ccccc3)[nH]2)cc1,234 to 235 °C
10,CCCCCCCCCCCCCCCCCCOC(=O)N(C)CC(O)C(O)C(O)C(O)CO (stereo not drawn),85 °C
11,COc1cc(SC#N)cc(C#N)c1N,121 to 122 °C
12,Brc1ccc(Cc2ccc(Br)cc2)cc1,62 to 62.5 °C
13,CCOC(=O)c1nnc2n1-c1ccccc1C(c1ccccc1)=NC2,205 to 206 °C
14,CC1(C)OCC(COc2cc(O)nc(N)n2)O1 (stereo not drawn),258 °C
15,CC(=O)NCc1ncccc1OCc1ccccc1,94 to 96 °C
16,Cc1ccn(-c2ccc(C(=O)N3Cc4cccnc4N(C)c4ccccc43)c(C(F)(F)F)c2)n1,188 to 190 °C
17,CC(C)c1ccc(Oc2ccc(CCNc3ncnc4nccnc34)cc2)cc1,105 to 106 °C
18,COc1ccc2[nH]cc(/C(C#N)=C/c3ccc(Cl)nc3)c2c1,184 °C
19,COc1ccc2c(c1)CCC1CCNC(=O)C(CC(=O)NC(C)C)=C21 (stereo not drawn),213 to 216 °C
20,Cc1cc(NC(=O)C2=C(O)c3ccc4ccccc4c3S(=O)(=O)N2C)sn1,268 °C
21,CC(C)c1ccc(O)c(C(C)C)c1NC(=O)CN1CCN(CCSc2nc3cccc(C(F)(F)F)c3o2)CC1,82 to 84 °C
22,Oc1ncnc2c1CCOc1ccccc1-2,241 to 243 °C
23,O=C(O)CNC(=O)C1(CS)Cc2ccccc2C1,137 to 143 °C
